Measured values as given in PMC9960307, “Design, Synthesis, Biological Evaluation, and Molecular Dynamics Simulation of Influenza Polymerase PB2 Inhibitors” (Molecules, 2023).
Several values for one entry are separate records, joined by “and”; a condition that tells them apart may be missing. Equal values may be shown once. Read-outs that look alike come from different tables or passages of the source.

What was measured:
aldehyde oxidase (AO) = molecular target: T1, aldehyde oxidase (AO) (Homo sapiens, UniProt Q06278); test: AO-mediated metabolic stability in human liver cytosol with/without raloxifene; format: in vitro ADME; conditions: for sensitivity to aldehyde oxidase (AO substrate or not): human liver cytosol, in words; for half-life at 1 μM: pooled liver (hepatocyte) cytosol, pH 7.4, human liver cytoplasm, read-out: Cytoplasm T1/2, Human
T1 construct: Human liver cytosolic protein was incubated with VX-787, comp; I, and comp; II; from tissue; host or cells: pooled human liver (hepatocyte) cytosol
T1 sequence (Q06278 1-1338): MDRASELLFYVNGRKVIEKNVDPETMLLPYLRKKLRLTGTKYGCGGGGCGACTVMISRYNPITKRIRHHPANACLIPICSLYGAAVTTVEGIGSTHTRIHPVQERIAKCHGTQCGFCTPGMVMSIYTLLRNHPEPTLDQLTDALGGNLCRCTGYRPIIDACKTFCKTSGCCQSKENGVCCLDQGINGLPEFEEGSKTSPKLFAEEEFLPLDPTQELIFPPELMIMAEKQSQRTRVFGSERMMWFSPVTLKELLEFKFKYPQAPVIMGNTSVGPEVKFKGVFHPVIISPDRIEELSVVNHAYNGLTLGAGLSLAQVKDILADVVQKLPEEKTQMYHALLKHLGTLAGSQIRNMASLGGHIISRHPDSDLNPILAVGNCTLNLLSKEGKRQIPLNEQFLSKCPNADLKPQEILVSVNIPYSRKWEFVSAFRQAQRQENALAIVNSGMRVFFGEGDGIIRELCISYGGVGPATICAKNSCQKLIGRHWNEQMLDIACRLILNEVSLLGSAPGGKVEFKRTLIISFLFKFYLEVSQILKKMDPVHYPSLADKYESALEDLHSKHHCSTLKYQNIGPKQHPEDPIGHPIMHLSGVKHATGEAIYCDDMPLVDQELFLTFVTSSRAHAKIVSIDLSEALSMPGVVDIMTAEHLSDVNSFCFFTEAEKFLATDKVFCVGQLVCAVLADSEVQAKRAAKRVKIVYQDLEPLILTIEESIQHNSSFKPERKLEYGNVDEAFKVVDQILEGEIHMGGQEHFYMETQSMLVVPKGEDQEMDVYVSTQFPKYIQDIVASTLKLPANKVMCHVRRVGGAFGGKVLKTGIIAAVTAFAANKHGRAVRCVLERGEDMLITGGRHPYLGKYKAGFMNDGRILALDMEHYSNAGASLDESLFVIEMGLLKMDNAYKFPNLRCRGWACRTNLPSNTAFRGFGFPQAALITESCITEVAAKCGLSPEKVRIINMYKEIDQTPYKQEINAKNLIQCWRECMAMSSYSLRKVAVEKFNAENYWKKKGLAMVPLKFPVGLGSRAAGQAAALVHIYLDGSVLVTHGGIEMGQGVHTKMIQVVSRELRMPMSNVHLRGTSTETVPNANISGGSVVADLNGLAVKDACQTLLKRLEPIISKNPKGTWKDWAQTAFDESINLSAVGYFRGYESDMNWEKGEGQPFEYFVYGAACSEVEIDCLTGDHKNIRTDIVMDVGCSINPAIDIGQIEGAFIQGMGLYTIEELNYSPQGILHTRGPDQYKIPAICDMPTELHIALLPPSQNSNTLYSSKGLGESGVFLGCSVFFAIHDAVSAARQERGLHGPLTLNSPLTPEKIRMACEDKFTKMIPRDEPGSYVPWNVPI

[1] = test system: influenza virus A/Hong Kong/8/68 (H3N2); test: Cytopathic effect (CPE) inhibition assay, H3N2; format: cell-based, influenza A/Hong Kong/8/68 (H3N2); conditions: MDCK cells, MOI 0.005, 72 h, CellTiter-Glo
[2] = test system: influenza virus A/Puerto Rico/8/1934 (H1N1); test: Cytopathic effect (CPE) inhibition assay, H1N1; format: cell-based, influenza A/Puerto Rico/8/1934 (H1N1); conditions: MDCK, 72 h, read-out: H1N1 IC50
in vitro [3] = conditions: rat, microsomes, pH 7.4, Microsome T1/2, Rat, rat liver microsomes, 1 μM
[4] = molecular target: T2, influenza A/WSN/1933 (H1N1) PB2 CBD (aa.318-486) (Influenza A virus, UniProt P03427); test: SPR competitive binding assay (Biacore T200)
T2 construct: influenza A/WSN/1933 (H1N1) PB2 CBD (aa.318-486); purchased
T2 sequence (P03427 318-486): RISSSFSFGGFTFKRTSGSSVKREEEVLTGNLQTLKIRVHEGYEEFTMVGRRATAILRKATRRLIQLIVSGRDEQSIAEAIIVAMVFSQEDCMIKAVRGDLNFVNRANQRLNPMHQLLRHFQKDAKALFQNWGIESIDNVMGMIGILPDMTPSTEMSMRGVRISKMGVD
Procedure: Biomolecular interaction analysis based on surface plasmon resonance (SPR) assays was performed using VX-787 and comp. I and II at concentrations ranging from 20 to 0.156 µM to investigate their competitive binding affinities with PB2 (Table 1).
Commercial companies express and purify HIN1 PB2 CBD protein, which provides influenza A/WSN/1933 (H1N1) PB2 CBD (aa.318-486). Using a Biacore T200 (GE Healthcare) and a running buffer of which contains a solution of 1 × PBS-P + 0.02 M phosphate buffer, 2.7 mM KCl, 0.137 M NaCl, and 0.05% Tween 20, H1N1 PB2 was immobilized to a level of 4900 response units (RUs). Serial dilutions of small molecules were injected, ranging in concentration from 20 µM to 0.156 µM. GE Healthcare’s Biacore Evaluation Software was used to fit the resulting data to the affinity binding model.

influenza virus = test: CPE inhibition assay as summarised in the conclusions (strain not stated); format: cell-based; conditions: unidentified influenza virus
in vitro [5] = conditions: dog
in vitro [6] = conditions: human, microsomes, pH 7.4, Microsome T1/2, Human, human liver microsomes, 1 μM
[7] = design: method as in PMID 32604406; conditions: phase II clinical trial; cited from earlier work
[8] = oral dose 600 mg, bid, healthy volunteers; cited from earlier work
virus-free cells = test system: virus-free cells; design: method as in PMID 25547360; conditions: incubated in virus-free cells; cited from earlier work
[9] = not given; remark: listed apart in the source
[10] = not given; remark: listed apart in the source
[11] = with AO inhibitor raloxifene, 0 min
[12] = with AO inhibitor raloxifene, 15 min
[13] = with AO inhibitor raloxifene, 30 min
[14] = with AO inhibitor raloxifene, 60 min

Question: Which results are given for `O=C(O)C1C2CCC(CC2)C1Nc1nc(-n2c(=O)[nH]c3ncc(F)cc32)ncc1F` [comp. I, (1R,2S,3S,4R)-3-((5-fluoro-2-(6-fluoro-2-oxo-2,3-dihydro-1H-imidazo[4,5-b]pyridin-1-yl)pyrimidin-4-yl)amino)bicyclo[2.2.2]octane-2-carboxylic acid]?
Answer: sensitivity to aldehyde oxidase (AO substrate or not) (aldehyde oxidase (AO)): remains as a substrate; half-life at 1 μM (aldehyde oxidase (AO)): > 13.3 h; Residual percentage in 0.5mg/ml human liver cytoplasm (aldehyde oxidase (AO); [11]): 100.00±3.87%; Residual percentage in 0.5mg/ml human liver cytoplasm (aldehyde oxidase (AO); [12]): 108.27±5.07%; Residual percentage in 0.5mg/ml human liver cytoplasm (aldehyde oxidase (AO); [13]): 102.66±4.43%; Residual percentage in 0.5mg/ml human liver cytoplasm (aldehyde oxidase (AO); [14]): 112.89±1.99%; Residual percentage in 0.5mg/ml human liver cytoplasm (aldehyde oxidase (AO); without raloxifene, 0 min): 100.00±6.12%; Residual percentage in 0.5mg/ml human liver cytoplasm (aldehyde oxidase (AO); without raloxifene, 15 min): 95.20±3.72%; Residual percentage in 0.5mg/ml human liver cytoplasm (aldehyde oxidase (AO); without raloxifene, 30 min): 99.98±8.74%; Residual percentage in 0.5mg/ml human liver cytoplasm (aldehyde oxidase (AO); without raloxifene, 60 min): 93%; Residual percentage in 0.5mg/ml human liver cytoplasm (aldehyde oxidase (AO); without raloxifene, 60 min, listed as Comp I): 93.52±8.82%; IC50 [1]: 40 ± 10 nM; Residual percentage in rat liver microsome (rat, 0 min, 1 μM, pH 7.4): 100.00%; Microsome Clh, Rat (rat, 1 μM, pH 7.4): 0.53 mL/min/kg; IC50 [2]: 70 ± 20 nM; half-life (in vitro [3]): > 13.3 h; Kd [4]: 1400 nM; EC50 (influenza virus): 40 nM; CC50 at 72 h (in vitro [5]): > 200000 nM; half-life (in vitro [6]): > 13.3 h

Question: Which results are given for `O=C(O)[C@H]1C2CCC(CC2)[C@@H]1Nc1nc(-c2c[nH]c3ncc(F)cc23)ncc1F` [VX-787, pimodivir, reference compound]?
Answer: sensitivity to aldehyde oxidase (AO substrate or not) (aldehyde oxidase (AO)): indeed an AO substrate; half-life at 1 μM (aldehyde oxidase (AO)): 2.5 h; Residual percentage in 0.5mg/ml human liver cytoplasm (aldehyde oxidase (AO); [11]): 100.00±3.54%; Residual percentage in 0.5mg/ml human liver cytoplasm (aldehyde oxidase (AO); [12]): 100.65±7.76%; Residual percentage in 0.5mg/ml human liver cytoplasm (aldehyde oxidase (AO); [13]): 97.25±1.77%; Residual percentage in 0.5mg/ml human liver cytoplasm (aldehyde oxidase (AO); without raloxifene, 0 min): 100.00±7.65%; Residual percentage in 0.5mg/ml human liver cytoplasm (aldehyde oxidase (AO); without raloxifene, 15 min): 87.02±9.00%; Residual percentage in 0.5mg/ml human liver cytoplasm (aldehyde oxidase (AO); without raloxifene, 30 min): 90.17±9.31%; Residual percentage in 0.5mg/ml human liver cytoplasm (aldehyde oxidase (AO); without raloxifene, 60 min): 71.87±6.78% and 72%; IC50 [1]: < 3 nM; Microsome Clh, Rat (rat liver microsomes): 1.72 mL/min/kg; Residual percentage in rat liver microsome (with NADPH, 0 min): 99.99±0.99%; Residual percentage in rat liver microsome (with NADPH, 5 min): 98.25±4.53%; Residual percentage in rat liver microsome (with NADPH, 15 min): 95.80±0.68%; Residual percentage in rat liver microsome (with NADPH, 30 min): 91.51±3.09%; Residual percentage in rat liver microsome (with NADPH, 60 min): 88.79±2.11% and 88%; Residual percentage in rat liver microsome (without NADPH, 0 min): 99.99±2.01%; Residual percentage in rat liver microsome (without NADPH, 5 min): 109.05%; Residual percentage in rat liver microsome (without NADPH, 15 min): 103.93%; Residual percentage in rat liver microsome (without NADPH, 30 min): 100.41%; Residual percentage in rat liver microsome (without NADPH, 60 min): 92.13±5.76%; adverse effects [7]: no serious adverse effects; viral load in patients [7]: reduce the viral load; IC50 [2]: < 3 nM; safety in phase I clinical trial [8]: no safety issues; half-life (in vitro [3]): 4.16 h; Kd ([4]; 20 to 0.156 µM, affinity binding model, read-out: SPR KD): 152 nM; cytotoxicity (virus-free cells): no cytotoxicity; CC50 (in vitro [5]): > 200000 nM; Microsome Clh, Human ([9]; human liver microsomes): 1.49 mL/min/kg; Residual percentage in human liver microsome ([9]; with NADPH, 0 min): 99.99±4.23%; Residual percentage in human liver microsome ([9]; with NADPH, 5 min): 103.84±1.21%; Residual percentage in human liver microsome ([9]; with NADPH, 15 min): 91.56±7.20%; Residual percentage in human liver microsome ([9]; with NADPH, 30 min): 101.85±8.49%; Residual percentage in human liver microsome ([9]; with NADPH, 60 min): 89.33±8.96% and 89.33%; Residual percentage in human liver microsome ([9]; without NADPH, 0 min): 100.00%; Residual percentage in human liver microsome ([9]; without NADPH, 5 min): 110.26%; Residual percentage in human liver microsome ([9]; without NADPH, 15 min): 100.78%; Residual percentage in human liver microsome ([9]; without NADPH, 30 min): 113.32%; Residual percentage in human liver microsome ([9]; without NADPH, 60 min): 107.81%; half-life (in vitro [6]): 5.82 h

Question: Which “sensitivity to aldehyde oxidase (AO substrate or not)” value (aldehyde oxidase (AO)) does the source give for `N=c1[nH]c2ncc(F)cc2n1-c1ncc(F)c(NC2C3CCC(CC3)C2C(=O)O)n1` [comp. II, (1R,2S,3S,4R)-3-((2-(2-amino-6-fluoro-1H-imidazo[4,5-b]20yridine-1-yl)-5-fluoropyrimidin-4-yl)amino)bicyclo[2.2.2]octane-2-carboxylic acid] here?
Answer: The value was “nearly unaffected”.

Question: What about the half-life at 1 μM (aldehyde oxidase (AO)) of the same molecule?
Answer: Its half-life at 1 μM is over 13.3 h.

Question: And the “Residual percentage in 0.5mg/ml human liver cytoplasm” value (aldehyde oxidase (AO); [11])?
Answer: The value was 100.00±8.74%.

Question: What about the “Residual percentage in 0.5mg/ml human liver cytoplasm” value (aldehyde oxidase (AO); [12]) of the same molecule?
Answer: The value was 110.60±4.82%.

Question: And the “Residual percentage in 0.5mg/ml human liver cytoplasm” value (aldehyde oxidase (AO); [13])?
Answer: Its value is 107.60±7.80%.

Question: And the “Residual percentage in 0.5mg/ml human liver cytoplasm” value (aldehyde oxidase (AO); [14])?
Answer: Its value is 109.12±6.67%.

Question: And the “Residual percentage in 0.5mg/ml human liver cytoplasm” value (aldehyde oxidase (AO); without raloxifene, 0 min)?
Answer: The value was 100.00±0.44%.

Question: And the “Residual percentage in 0.5mg/ml human liver cytoplasm” value (aldehyde oxidase (AO); without raloxifene, 15 min)?
Answer: Its value is 107.07±16.04%.

Question: And the “Residual percentage in 0.5mg/ml human liver cytoplasm” value (aldehyde oxidase (AO); without raloxifene, 30 min)?
Answer: The value was 108.17±9.51%.

Question: And the “Residual percentage in 0.5mg/ml human liver cytoplasm” value (aldehyde oxidase (AO); without raloxifene, 60 min)?
Answer: Its value is “barely changed”.

Question: What about the “Residual percentage in 0.5mg/ml human liver cytoplasm” value (aldehyde oxidase (AO); without raloxifene, 60 min, listed as Comp II) of the same molecule?
Answer: Its value is 103.11±2.84%.

Question: And the IC50 [1]?
Answer: Its IC50 is 70 ± 30 nM.

Question: What about the IC50 [2] of the same molecule?
Answer: The IC50 was 90 ± 50 nM.

Question: And the melting point [10]?
Answer: The melting point was 315 to 317 °C.

Question: And the half-life (in vitro [3])?
Answer: The half-life was over 13.3 h.

Question: What about the Kd [4] of the same molecule?
Answer: Its Kd is 1670 nM.

Question: What about the EC50 (influenza virus) of the same molecule?
Answer: The EC50 was 90 nM.

Question: And the CC50 at 72 h (in vitro [5])?
Answer: The CC50 at 72 h was over 200000 nM.

Question: And the “Microsome Clh, Human” value ([9]; human, 1 μM, pH 7.4)?
Answer: Its value is 0.46 mL/min/kg.

Question: What about the half-life (in vitro [6]) of the same molecule?
Answer: Its half-life is over 13.3 h.
